This passage reports EC50 results from patent US20230062119A1, “USE OF BIOMARKERS IN IDENTIFYING PATIENTS THAT WILL BE RESPONSIVE TO TREATMENT WITH A PRMT5 INHIBITOR” (Merck Sharp & Dohme LLC, priority 2019, published 2023).

In the first assay the target is T1, Full-length (FL)-PRMT5-MEP50 enzyme complex (Homo sapiens, UniProt O14744).
T1 construct: Full-length (FL)-PRMT5-MEP50 enzyme complex (recombinant proteins from baculovirus-transfected Sf21 cells: FL-PRMT5; MW=73837 kDa and FL-MEP50; MW=38614); made in house; host or cells: baculovirus-transfected Sf21 insect cells
T1 sequence (O14744 whole entry): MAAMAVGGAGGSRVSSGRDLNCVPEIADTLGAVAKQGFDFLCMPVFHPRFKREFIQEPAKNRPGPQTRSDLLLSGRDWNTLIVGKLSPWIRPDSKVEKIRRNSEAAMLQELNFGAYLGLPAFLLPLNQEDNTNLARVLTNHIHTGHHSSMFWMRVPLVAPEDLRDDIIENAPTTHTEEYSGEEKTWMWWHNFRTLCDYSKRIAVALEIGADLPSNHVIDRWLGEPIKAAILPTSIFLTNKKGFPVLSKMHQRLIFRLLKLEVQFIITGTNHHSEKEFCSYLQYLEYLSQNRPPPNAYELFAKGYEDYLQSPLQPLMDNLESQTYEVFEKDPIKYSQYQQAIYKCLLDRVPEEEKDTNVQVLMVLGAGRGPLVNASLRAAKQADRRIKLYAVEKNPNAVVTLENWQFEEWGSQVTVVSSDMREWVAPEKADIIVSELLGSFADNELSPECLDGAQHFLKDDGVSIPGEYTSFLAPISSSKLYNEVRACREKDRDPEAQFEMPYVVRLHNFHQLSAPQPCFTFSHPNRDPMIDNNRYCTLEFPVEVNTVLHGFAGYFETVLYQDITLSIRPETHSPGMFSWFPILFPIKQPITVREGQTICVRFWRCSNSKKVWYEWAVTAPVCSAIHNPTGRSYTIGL
T1 sequence (Q9BQA1 whole entry partner): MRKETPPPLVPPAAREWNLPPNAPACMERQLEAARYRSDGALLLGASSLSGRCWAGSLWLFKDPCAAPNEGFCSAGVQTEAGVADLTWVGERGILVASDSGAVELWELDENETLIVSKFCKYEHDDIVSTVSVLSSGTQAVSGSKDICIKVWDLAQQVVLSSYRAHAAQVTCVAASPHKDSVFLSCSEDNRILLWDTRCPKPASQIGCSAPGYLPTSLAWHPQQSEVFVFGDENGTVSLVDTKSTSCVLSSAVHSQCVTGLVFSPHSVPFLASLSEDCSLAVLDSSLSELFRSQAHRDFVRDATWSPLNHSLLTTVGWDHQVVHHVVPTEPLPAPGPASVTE
In words: PRMT5-MEP50 Enzyme Methylation Assay. It counts as biochemical. To be noted: one EC50: 4 parameters single site sigmoidal model; EC50 1: first value of 7 parameters biphasic model; 1.0 nM PRMT5-MEP50, 75 nM biotinylated peptide, 15 μM SAM; read-out: Enzyme Methylation Assay (EC50 or EC50 1). A digest of the protocol:
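Compound was pre-incubated 60 min at 37°C with 1.0 nM enzyme and 15 μM SAM (final) in 50 mM Bicine pH 8.0, then 75 nM biotinylated H4R3(Me1) peptide was added and reacted 150 min; twenty-point 1:2 titration from 100000 nM, 1% DMSO. Formic acid quench; SAMDI mass spectrometry measured Me1-to-Me2 conversion, EC50 by 4- or 7-parameter regression.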
What is called EC50 is the concentration at which the effect is half-maximal. Regarding `C[C@]12O[C@@H](n3ccc4c(N)ncnc43)[C@H](O)[C@@]1(O)CC[C@H]2Cc1ccc2cc(F)c(N)nc2c1` [Example 121, (2R,3R,3aS,6S,6aR)-6-((2-amino-3-fluoroquinolin-7-yl)methyl)-2-(4-amino-7H-pyrrolo[2,3-d]pyrimidin-7-yl)-6a-methylhexahydro-3aH-cyclopenta[b]furan-3,3a-diol], the EC50 was 0.4 nM.
Same read-out and setting: under `Cc1ncnc2c1ccn2[C@@H]1O[C@@H]2[C@H](Cc3ccc4cc(Cl)c(N)nc4c3)CC[C@]2(O)[C@H]1O` [Example 122, (2R,3R,3aS,6S,6aR)-6-((2-amino-3-chloroquinolin-7-yl)methyl)-2-(4-methyl-7H-pyrrolo[2,3-d]pyrimidin-7-yl)hexahydro-3aH-cyclopenta[b]furan-3,3a-diol] stands 0.6 nM.
Take `Cc1ncnc2c1ccn2[C@@H]1O[C@@H]2[C@H](Cc3ccc4cc(F)c(N)nc4c3)CC[C@]2(O)[C@H]1O` [Example 123, (2R,3R,3aS,6S,6aR)-6-((2-amino-3-fluoroquinolin-7-yl)methyl)-2-(4-methyl-7H-pyrrolo[2,3-d]pyrimidin-7-yl)hexahydro-3aH-cyclopenta[b]furan-3,3a-diol]: the EC50 amounted to 1 nM.
With `Nc1nc2cc(C[C@@H]3CC[C@@]4(O)[C@@H]3O[C@@H](n3ccc5c(N)ncnc53)[C@@H]4O)ccc2cc1F` [Example 124, (2R,3R,3aS,6S,6aR)-6-((2-amino-3-fluoroquinolin-7-yl)methyl)-2-(4-amino-7H-pyrrolo[2,3-d]pyrimidin-7-yl)hexahydro-3aH-cyclopenta[b]furan-3,3a-diol], the EC50 is 0.3 nM.
Consider `Cc1cc2ccc(C[C@@H]3CC[C@@]4(O)[C@@H]3O[C@@H](n3ccc5c(N)ncnc53)[C@@H]4O)cc2nc1N` [Example 125, (2R,3R,3aS,6S,6aR)-6-((2-amino-3-methylquinolin-7-yl)methyl)-2-(4-amino-7H-pyrrolo[2,3-d]pyrimidin-7-yl)hexahydro-3aH-cyclopenta[b]furan-3,3a-diol], for which the concentration giving a half-maximal response (EC50) amounted to 0.8 nM.
Same read-out and setting: to `C[C@]1(CCc2ccc3cc4c(nc3c2)NCC4)C[C@@H](n2ccc3c(N)ncnc32)[C@H](O)[C@@H]1O` [Example 126, (1S,2R,3S,5R)-5-(4-amino-7H-pyrrolo[2,3-d]pyrimidin-7-yl)-3-(2-(2,3-dihydro-1H-pyrrolo[2,3-b]quinolin-7-yl)ethyl)-3-methylcyclopentane-1,2-diol] belongs 0.6 nM; to `Cc1nc(N)nc2c1ccn2[C@@H]1O[C@@H]2[C@H](Cc3ccc4cc(Br)c(N)nc4c3)CC[C@]2(O)[C@H]1O` [Example 127, (2R,3R,3aS,6S,6aR)-6-((2-amino-3-bromoquinolin-7-yl)methyl)-2-(2-amino-4-methyl-7H-pyrrolo[2,3-d]pyrimidin-7-yl)hexahydro-3aH-cyclopenta[b]furan-3,3a-diol], 0.7 nM; to `Nc1nc2cc(O[C@H]3CC[C@@]4(O)[C@@H]3O[C@@H](n3ccc5c(N)ncnc53)[C@@H]4O)ccc2cc1C(F)F` [Example 128, (2R,3R,3aS,6S,6aR)-6-((2-amino-3-(difluoromethyl)quinolin-7-yl)oxy)-2-(4-amino-7H-pyrrolo[2,3-d]pyrimidin-7-yl)hexahydro-3aH-cyclopenta[b]furan-3,3a-diol], 0.7 nM.
The same measure, in the same setting: under `Cc1ncnc2c1ccn2[C@@H]1O[C@@H]2[C@H](Oc3ccc4cc(Br)c(N)nc4c3)CC[C@]2(O)[C@H]1O` [Example 129, (2R,3R,3aS,6R,6aR)-6-((2-amino-3-bromoquinolin-7-yl)oxy)-2-(4-methyl-7H-pyrrolo[2,3-d]pyrimidin-7-yl)hexahydro-3aH-cyclopenta[b]furan-3,3a-diol] stands 33.9 nM.
On to `Nc1ncc2c(F)cn([C@@H]3O[C@@H]4[C@@H](Oc5ccc6cc(Br)c(N)nc6c5)CC[C@]4(O)[C@H]3O)c2n1` [Example 130, (2R,3R,3aS,6S,6aR)-6-((2-amino-3-bromoquinolin-7-yl)oxy)-2-(2-amino-5-fluoro-7H-pyrrolo[2,3-d]pyrimidin-7-yl)hexahydro-3aH-cyclopenta[b]furan-3,3a-diol], for which the concentration for a half-maximal effect (EC50) is 0.6 nM.
As to `Cc1ncnc2c1ccn2[C@@H]1O[C@@H]2[C@@H](Cc3ccc4cc(Cl)c(N)nc4c3)CC[C@]2(O)[C@H]1O` [Example 131, (2R,3R,3aS,6R,6aR)-6-((2-amino-3-chloroquinolin-7-yl)methyl)-2-(4-methyl-7H-pyrrolo[2,3-d]pyrimidin-7-yl)hexahydro-3aH-cyclopenta[b]furan-3,3a-diol], the concentration giving a half-maximal response (EC50) amounted to 0.6 nM.
Still for that read-out and setting: to `Nc1nc2cc(CC3OC[C@@]4(O)C3C[C@@H](n3ccc5c(N)ncnc53)[C@@H]4O)ccc2cc1Br` (stereo partly drawn) [Example 132, (3aS,4S,5R)-1-((2-amino-3-bromoquinolin-7-yl)methyl)-5-(4-amino-7H-pyrrolo[2,3-d]pyrimidin-7-yl)tetrahydro-1H-cyclopenta[c]furan-3a,4(3H)-diol] belongs 3.9 nM; to `Cc1ncnc2c1ccn2[C@@H]1O[C@@H]2[C@H](Cc3ccc4cc(Br)c(N)nc4c3)OC[C@]2(O)[C@H]1O` [Example 133, (2R,3R,3aS,6S,6aR)-6-((2-amino-3-bromoquinolin-7-yl)methyl)-2-(4-methyl-7H-pyrrolo[2,3-d]pyrimidin-7-yl)tetrahydrofuro[3,4-b]furan-3,3a(4H)-diol], 0.8 nM; to `Cc1ncnc2c1ccn2[C@@H]1O[C@@H]2[C@@H](Cc3ccc4cc(Br)c(N)nc4c3)OC[C@]2(O)[C@H]1O` [Example 134, (2R,3R,3aS,6R,6aR)-6-((2-amino-3-bromoquinolin-7-yl)methyl)-2-(4-methyl-7H-pyrrolo[2,3-d]pyrimidin-7-yl)tetrahydrofuro[3,4-b]furan-3,3a(4H)-diol], 3.5 nM.
`Cc1cn([C@@H]2O[C@@H]3[C@H](Cc4ccc5cc(Br)c(N)nc5c4)OC[C@]3(O)[C@H]2O)c2ncnc(N)c12` [Example 135, (2R,3R,3aS,6S,6aR)-6-((2-amino-3-bromoquinolin-7-yl)methyl)-2-(4-amino-5-methyl-7H-pyrrolo[2,3-d]pyrimidin-7-yl)tetrahydrofuro[3,4-b]furan-3,3a(4H)-diol]: the EC50 worked out at 0.4 nM.
In the case of `Nc1nc2cc(C[C@@H]3OC[C@@]4(O)[C@@H]3O[C@@H](n3ccc5c(N)ncnc53)[C@@H]4O)ccc2cc1Br` [Example 136, (2R,3R,3aS,6S,6aR)-6-((2-amino-3-bromoquinolin-7-yl)methyl)-2-(4-amino-7H-pyrrolo[2,3-d]pyrimidin-7-yl)tetrahydrofuro[3,4-b]furan-3,3a(4H)-diol], the EC50 was determined as 0.5 nM.
`Nc1nc2cc(C[C@@H]3CC[C@@]4(O)[C@@H]3O[C@@H](n3ccc5c(N)ncnc53)[C@@H]4O)ccc2cc1C(F)F` [Example 137, (2R,3R,3aS,6S,6aR)-6-((2-amino-3-(difluoromethyl)quinolin-7-yl)methyl)-2-(4-amino-7H-pyrrolo[2,3-d]pyrimidin-7-yl)hexahydro-2H-cyclopenta[b]furan-3,3a-diol]: the EC50 came out at 0.5 nM.
`Nc1nc2cc(C[C@@H]3CC[C@@]4(O)[C@@H]3O[C@@H](n3ccc5c(N)ncnc53)[C@@H]4O)ccc2cc1C(F)(F)F` [compound 76, (2R,3R,3aS,6S,6aR)-6-((2-amino-3-(trifluoromethyl)quinolin-7-yl)methyl)-2-(4-amino-7H-pyrrolo[2,3-d]pyrimidin-7-yl)hexahydro-3aH-cyclopenta[b]furan-3,3a-diol]: the EC50 turned out to be 0.9 nM.

Staying with this assay, now noted: second EC50 of 7 parameters biphasic model; 1.0 nM PRMT5-MEP50, 75 nM biotinylated peptide, 15 μM SAM; read-out: Enzyme Methylation Assay (EC50 2).
In the case of `Cc1ncnc2c1ccn2[C@@H]1O[C@@H]2[C@H](Oc3ccc4cc(Br)c(N)nc4c3)CC[C@]2(O)[C@H]1O` [Example 129, (2R,3R,3aS,6R,6aR)-6-((2-amino-3-bromoquinolin-7-yl)oxy)-2-(4-methyl-7H-pyrrolo[2,3-d]pyrimidin-7-yl)hexahydro-3aH-cyclopenta[b]furan-3,3a-diol], the half-maximal effective concentration (EC50) was 31600 nM.
For `Nc1nc2cc(CC3OC[C@@]4(O)C3C[C@@H](n3ccc5c(N)ncnc53)[C@@H]4O)ccc2cc1Br` (stereo partly drawn) [Example 132, (3aS,4S,5R)-1-((2-amino-3-bromoquinolin-7-yl)methyl)-5-(4-amino-7H-pyrrolo[2,3-d]pyrimidin-7-yl)tetrahydro-1H-cyclopenta[c]furan-3a,4(3H)-diol], the concentration for a half-maximal effect (EC50) is 3310 nM.
